Data as given in PubChem BioAssay AID179 (DTP/NCI, 2004).
The source made the active and inactive calls.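 How the source made its calls: active means compounds giving half or more protection of infected cells from virus-caused growth loss, again on retest; inactive means the rest.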

Test system: CEM cells HIV-1 protection, formazan growth assay
Assay: NCI AIDS Antiviral Assay
Conditions: for IC50: measured here: growth of uninfected CEM cells
How it was run: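 Category rules: moderately active means at least 50% protection on retest, and confirmed active means 100% protection reproducibly. The underlying data came from a formazan growth assay in HIV-1-infected CEM cells.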

SMILES	EC50 [µM]	IC50 [µM]	outcome
COC(=O)[C@H](Cc1ccccc1)NC(=O)NCCN(CCNC(=O)N[C@@H](Cc1ccccc1)C(=O)OC)C(=O)N[C@@H](Cc1ccccc1)C(=O)OC	> 200	33.9	
Cc1ccc([PH+](CC[PH+](c2ccccc2)c2ccccc2)c2ccc(C)cc2)cc1.Cc1ccc([PH+](CC[PH+](c2ccccc2)c2ccccc2)c2ccc(C)cc2)cc1.[Pt]	> 6.92	3.8	
COC(=O)C1=C2Nc3ccccc3[C@@]23CCN(Cc2ccccc2)C3CC1[C@@H]1COC(C)(C)O1 (stereo partly specified)	> 100	51.3	
O=C(O)c1cc(N=Nc2ccc(CCc3ccc(N=Nc4cc(C(=O)O)c(O)c5ccccc45)cc3S(=O)(=O)O)c(S(=O)(=O)O)c2)c2ccccc2c1O	> 12.6	> 12.6	
CC1=CC[C@@]2(C)CC[C@](O)(C(C)C)C2C(OC(=O)c2ccccc2)C1 (stereo partly specified)	> 200	13.2	
CCCCCCCCCc1nn2c(Cc3ccccc3)nnc2s1	> 200	36.3	
COc1ccc2[nH]c(C[P+](c3ccccc3)(c3ccccc3)c3ccccc3)cc2c1	> 200	12	
CC(C#N)(CCC(=O)O)N=NC(C)(C#N)CCC(=O)O (stereo unspecified)	> 891	> 891	
C=C1CC(Cn2cc(Br)c(=O)[nH]c2=O)(c2ccc(-c3ccccc3)cc2)OC1=O (stereo unspecified)	> 20	0.457	
O=c1c2ccccc2n2nnc3ccc(NCCCNCCNCCCNc4ccc5nnn6c7ccccc7c(=O)c4c56)c1c32	> 0.0501	0.0347	
CC(C)OP(=O)(OC(C)C)C(C(C)C)N(C)C(N)=NC#N (stereo unspecified)	> 200	> 200	
Cc1csc2c(P(=O)(OC(C)C)OC(C)C)c(-c3ccccc3)cn12	> 200	33.1	
O=Cc1cc(C(=O)OCc2ccccc2)n(S(=O)(=O)c2ccccc2)c1	> 200	17.4	
Cc1cc(O)c2c(c1)C(=O)c1cccc(O)c1C2=O	> 28.2	> 28.2	
Cc1cc2c(O)c(c1)CN(CC(=O)O)Cc1cc(C)cc(c1O)CN(CC(=O)O)Cc1cc(C)cc(c1O)CN(CC(=O)O)C2	> 200	> 200	
COC(=O)[C@]12CCC(=O)N1[C@H](C(=O)O)Cc1c2[nH]c2ccccc12	> 200	> 200	
C=Cc1ccccc1C1(O)C=CC(OC)(OC)C=C1	> 200	7.94	
CCOP(=O)(OCC)/C(C#N)=C/c1ccc(Oc2ccccc2)cc1	> 20.4	> 20.4	
c1ccc(-c2cc(N3CCOCC3)c3ccccc3n2)cc1			inactive
Nc1cc(N)c(N)cc1N	> 200	38	
NC(N)=NS(=O)(=O)c1ccc(Nc2c3ccccc3nc3c(C(=O)Nc4ccc(S(N)(=O)=O)cc4)ccc(Cl)c23)cc1	> 41.7	> 41.7	
CC1(C)C2CCC3CC(CCC#N)CCC3C21C#N (stereo unspecified)	> 200	95.5	

SMILES	EC50 [µM]	IC50 [µM]	outcome
COc1ccc(/C=C/c2ccc3ccccc3n2)cc1OC	> 200	36.3	
Cc1cc(C)c(C(=O)O)c(SSc2cc(C)cc(C)c2C(=O)O)c1	46.8	123	
O=C(O)C1OC(n2cc([N+](=O)[O-])c(=O)[nH]c2=O)C(O)C1O (stereo unspecified)	> 200	> 200	
CC(C)c1ncc([N+](=O)[O-])n1C	> 200	> 200	
O=C(O)c1ccc(N=Nc2ccc(/C=C/c3ccc(N=Nc4ccc(C(=O)O)cc4O)cc3S(=O)(=O)O)c(S(=O)(=O)O)c2)c(O)c1	> 513	4.27	
CCOC(=O)N1C2C=C(C)C(C3C(C)C(=O)N31)N(C(=O)c1ccccc1)O2 (stereo unspecified)	> 355	> 355	
N#Cc1nc(-c2cc([N+](=O)[O-])cc([N+](=O)[O-])c2)oc1N	> 100	> 100	
CC(=O)CC12NC(=O)N(C)N=C1N(C)C(=O)N(C)C2=O (stereo unspecified)	> 200	10.7	
O=C1/C(=C/c2cccc([N+](=O)[O-])c2)SC(=S)N1C1CC1	> 32.4	> 32.4	
NC(CCC(=O)NC(CSSCC(NC(=O)CCC(N)C(=O)O)C(=O)O)C(=O)O)C(=O)O (stereo unspecified)	> 200	> 200	
COc1cc2c(cc1OC)C(C#N)N(C(=O)c1ccccc1)C=C2OC(=O)c1ccccc1 (stereo unspecified)			inactive
C=C(/C=N/N(C)C)CC1c2c(O)ccc3cccc(c23)N1S(=O)(=O)c1ccc(C)cc1 (stereo unspecified)	> 10.7	> 10.7	
C=C(C)C#CC(O)(C(=O)OC1CCN(C)CC1)C(C)C (stereo unspecified)	> 200	> 200	
CCOC(=O)/C(=C/c1ccc(OC)cc1)N(CC)CC	> 468	263	
OC1c2ccccc2C(O)c2c1ccc1c2CN(Cc2ccccc2)CC1 (stereo unspecified)	> 72.4	12.6	
CC(/C=C/c1ccccc1Cl)=N\C(=S)NC(N)=S	> 200	20.9	
COC1=C(N=[N+]=[N-])C(=O)c2ncccc2C1=O			inactive
NC(N)=NC(N)=Nc1cccc(S(=O)(=O)c2cccc(N=C(N)N=C(N)N)c2)c1	126	> 200	
CC1=C/N\C(C#N)=C(C#N)/N=C/C(C)=C\N\C(C#N)=C(C#N)/N=C\1	> 200	> 200	
ClCc1nn(-c2ccccc2)c(CCl)c1CCl	> 200	1.23	
COc1cc2c(cc1O)CN1CCC23C=C[C@@H](O)CC13 (stereo partly specified)	> 912	38.9	
O=c1oc2ccc(O)cc2c2ccccc12	> 170	38	

SMILES	EC50 [µM]	IC50 [µM]	outcome
C/C(O)=C(\C=NC(=S)c1cccnc1)C(=O)Nc1ccccc1C	> 200	> 200	
COC(=O)C(=O)/C=C(/O)c1ccc(OC)cc1	> 200	> 200	
CCOC(=O)/C(=C/c1cccc(Cl)c1)N(CC)CC	> 91.2	> 91.2	
c1ccc2c(c1)[nH]c1nc3cc(-c4ccc5nc6c(nc5c4)[nH]c4ccccc46)ccc3nc12	> 200	110	
O=C1C=CC2OC(c3ccccc3)[C@H](O)C2O1 (stereo partly specified)	> 1070	6.92	
COc1c(C)cc2c(C(C)C)c(O)c(O)c(C=O)c2c1O	> 871	14.8	
CC(=O)NNC(=S)N/C=C(\C#N)c1nc2ccccc2s1	> 200	> 200	
FC(F)(F)c1cccc(N(c2nc(Cl)nc(Cl)n2)c2nc(Cl)nc(Cl)n2)c1	> 200	> 200	
CCOC(=O)c1c(N)sc2c1C(C(=O)OCC)CCC2 (stereo unspecified)	> 200	112	
Nc1cccc(N=Nc2c(S(=O)(=O)O)cc3cc(Nc4ccc5c(O)c(N=Nc6cccc(N)c6)c(S(=O)(=O)O)cc5c4)ccc3c2O)c1			inactive
Nc1ncnc2c1C=C(B(O)O)B(O)N2	> 126	74.1	
CC(C)CNC1=NCC(C)S1 (stereo unspecified)	> 200	> 200	
CC(=O)c1nc(C#N)c(N)o1			inactive
O=C(NC12CC3CC(CC(F)(C3)C1)C2)c1ccccc1	> 132	52.5	
CC(=O)NN(c1ccccc1)C1CCN(c2ccccc2)N1C(C)=O (stereo unspecified)	> 200	10.7	
CC(=O)Oc1ccc([As](=O)(O)O)cc1N	> 200	> 200	
O=C(Nc1cc(Cl)c(Cl)cc1Cl)C(=O)C(C(=O)c1ccc2ccccc2c1)C1OC(=O)c2ccccc21 (stereo unspecified)	> 64.6	31.6	
CC=C(c1cc(Br)c(OC)c(C(=O)OC)c1)c1cc(Br)c(OC)c(C(=O)OC)c1	> 200	13.5	
O=[N+]([O-])c1cccc(C2SCc3nc4ccccc4n32)c1 (stereo unspecified)	> 60.3	37.2	
CC(C)c1ccc(/C(C(=O)O)=C(\O)C(=O)O)cc1	> 200	107	
COC1=C(C)C(=O)C(=O)c2c(C)ccnc21			inactive
O=C1CCCC(=O)NNC(=O)NCCCCCCNC(=O)NN1	> 30.2	> 30.2	

SMILES	EC50 [µM]	IC50 [µM]	outcome
COc1ccc2nc3ccccc3c(NCCN(C)CCCl)c2c1	> 20	1.32	
O=C1c2ccccc2C2(O)c3cc4ccccc4cc3OC12O (stereo unspecified)	> 589	44.7	
COc1cccc(/C=N/[N-]C(=O)c2ccncc2)c1[O-].[Cu+2].[OH3+]	> 10.7	> 10.7	
CC1(C)OC[C@@H](O)[C@H](C#N)CO1	> 200	> 200	
C/C=C1\CN(C)C2Cc3c([nH]c4ccccc34)[C@H](c3c(OC)ccc4c5c([nH]c34)C3(C(=O)OC)CC4CC(CC)C3N(CC5)C4)CC1C2C(=O)OC (stereo partly specified)			inactive
Cn1c(=O)c2sc3cc4c(cc3c2c2ccccc21)sc1c(=O)n(C)c2ccccc2c14	> 100	61.7	
CCCCCCCCCC1C(C)c2c([nH]c3ccccc23)C2C(=O)N(c3ccccc3)C(=O)C21 (stereo unspecified)			inactive
COC1(C)C(=O)N2C1N(C(=O)OC(C)(C)C)CC2(C)C (stereo unspecified)	> 380	> 380	
O=C1c2c(nc3ccccc3c2-c2ccccc2)CN1Nc1ccccc1	> 87.1	> 87.1	
CN(c1ccccc1)c1nc(=[N+]2CCCC2)ss1			inactive
C=C1CC(C)(Cn2c(N)nc3nc[nH]c3c2=O)OC1=O (stereo unspecified)	> 200	117	
CCOC(=O)C1(C(F)(F)F)N=C(CC)OC(N2CCOCC2)=N1 (stereo unspecified)	> 200	> 200	
N#C/C(=C\c1ccc(F)cc1)C(=O)c1ccccc1	> 70.8		
O=C(c1c(O)cc(O)cc1O)C1Cc2ccccc21 (stereo unspecified)			inactive
Cc1ccc(NC2=N/C(=C/c3ccccc3)C(Cl)=N2)cc1	> 100	> 100	
O=C1OC2C(O)COC2(O)C1(O)Cc1cc(O)c(O)c(Br)c1Br (stereo unspecified)			inactive
C[n+]1ccc(-c2nc(-c3cc[n+](C)cc3)nc(-c3cc[n+](C)cc3)n2)cc1	> 200	77.6	
O=S1(=O)C[C@H](O)[C@H](O)CS1	8.32	75.9	
Cc1ccc(Nc2nc3c(=O)n(C)c(=O)n(C)c3nc2Nc2ccc(C)cc2)cc1	> 200	2.04	
CCN(CC)CC(C)Nc1cc(C)nc2c1ccc1c2ccc2c(NC(C)CN(CC)CC)cc(C)nc21 (stereo unspecified)	> 380	234	
CC1=C(C)C(=O)c2c(cc3ccc4ccccc4n23)C1=O			inactive
